Measured values published in patent US4311698A, “Aminoacid derivatives of cephalosporin compounds” (priority 1980, dated 1982).
Converted amounts (≈) assume the structure as drawn.

Legend:
Assay type in all cases: cell-based
Pseudomonas #28 = assay: In vitro minimal inhibitory concentration, Pseudomonas #28; details: Pseudomonas #28; in vitro; read-out: Minimal Inhibitory Concentration
Pseudomonas BRK 12-4-4 = assay: In vitro minimal inhibitory concentration, Pseudomonas BRK 12-4-4; details: BRK1244
Pseudomonas UI 18 = assay: In vitro minimal inhibitory concentration, Pseudomonas UI 18; details: UI18
E. Coli. Brig = assay: In vitro minimal inhibitory concentration, E. Coli. Brig; details: Escherichia coli
E. Coli. Vogel = assay: In vitro minimal inhibitory concentration, E. Coli. Vogel; details: Escherichia coli
Prot Vulg. = assay: In vitro minimal inhibitory concentration, Prot Vulg.
Entero Cloac. IM 11 = assay: In vitro minimal inhibitory concentration, Entero Cloac. IM 11
Serr. Mar. IMM 16 = assay: In vitro minimal inhibitory concentration, Serr. Mar. IMM 16
Klebs. Pneum. MGH 2 = assay: In vitro minimal inhibitory concentration, Klebs. Pneum. MGH 2
Strep. fec. MGH 2 = assay: In vitro minimal inhibitory concentration, Strep. fec. MGH 2
Staph UC76 = assay: In vitro minimal inhibitory concentration, Staph UC76
Staph S 18713 = assay: In vitro minimal inhibitory concentration, Staph S 18713

| SMILES | MIC (Pseudomonas #28) [µg/mL] | MIC (Pseudomonas BRK 12-4-4) [µg/mL] | MIC (Pseudomonas UI 18) [µg/mL] | MIC (E. Coli. Brig) [µg/mL] | MIC (E. Coli. Vogel) [µg/mL] | MIC (Prot Vulg.) [µg/mL] | MIC (Entero Cloac. IM 11) [µg/mL] | MIC (Serr. Mar. IMM 16) [µg/mL] | MIC (Klebs. Pneum. MGH 2) [µg/mL] | MIC (Strep. fec. MGH 2) [µg/mL] | MIC (Staph UC76) [µg/mL] | MIC (Staph S 18713) [µg/mL] |
| --- | --- | --- | --- | --- | --- | --- | --- | --- | --- | --- | --- | --- |
| CC(=O)N1CCC[C@H]1C(=O)Nc1ccc(-c2ccc(C(=O)N[C@@H](C(=O)NC3C(=O)N4C(C(=O)O)=C(CSc5nnnn5C)CSC34)c3ccccc3)c(=O)[nH]2)cc1 (stereo partly drawn) [Example 2, N-[6-[4-(N-Acetyl-L-prolylamino)phenyl]-1,2-dihydro-2-oxonicotinyl]-7-[D-2-amino-2-phenylacetamido]-3-[[(1-methyl-1H-tetrazol-5-yl)thio]methyl]-3-cephem-4-carboxylic acid] | 12.5 (≈ 15.4 µM) | 25 (≈ 30.8 µM) | 12.5 (≈ 15.4 µM) | 6.3 (≈ 7.75 µM) | 1.6 (≈ 1.97 µM) | 25 (≈ 30.8 µM) | 6.3 (≈ 7.75 µM) | 12.5 (≈ 15.4 µM) | 1.6 (≈ 1.97 µM) | 25 (≈ 30.8 µM) | 0.8 (≈ 0.984 µM) | 3.1 (≈ 3.81 µM) |
| CC(=O)N[C@@H](C)C(=O)Nc1ccc(-c2ccc(C(=O)N[C@@H](C(=O)NC3C(=O)N4C(C(=O)O)=C(COC(C)=O)CSC34)c3ccccc3)c(=O)[nH]2)cc1 (stereo partly drawn) [Example 5, N-[6-[4-(N-Acetyl-L-alanylamino)phenyl]-1,2-dihydro-2-oxonicotinyl]-6-[D-2-amino-2-phenylacetamido]-3-acetoxymethyl-3-cephem-4-carboxylic acid] | 6.3 (≈ 8.62 µM) | 12.5 (≈ 17.1 µM) | 6.3 (≈ 8.62 µM) | 12.5 (≈ 17.1 µM) | 1.6 (≈ 2.19 µM) | 25 (≈ 34.2 µM) | 12.5 (≈ 17.1 µM) | 50 (≈ 68.4 µM) | 12.5 (≈ 17.1 µM) | 25 (≈ 34.2 µM) | 0.8 (≈ 1.09 µM) | 1.6 (≈ 2.19 µM) |
| CC(=O)OCC1=C(C(=O)O)N2C(=O)C(NC(=O)[C@H](NC(=O)c3ccc(-c4ccc(NC(=O)[C@@H]5CCC(=O)N5)cc4)[nH]c3=O)c3ccccc3)C2SC1 (stereo partly drawn) [Example 6, N-[6-[4-(L-Pyroglutamylamino)phenyl]-1,2-dihydro-2-oxonicotinyl]-7-[D-2-amino-2-phenylacetamido]-3-acetoxymethyl-3-cephem-4-carboxylic acid] | 12.5 (≈ 17.2 µM) | 12.5 (≈ 17.2 µM) | 6.3 (≈ 8.65 µM) | 25 (≈ 34.3 µM) | 3.1 (≈ 4.25 µM) | 25 (≈ 34.3 µM) | 12.5 (≈ 17.2 µM) | 50 (≈ 68.6 µM) | 6.3 (≈ 8.65 µM) | 25 (≈ 34.3 µM) | 0.8 (≈ 1.1 µM) | 3.1 (≈ 4.25 µM) |
| Cn1nnnc1SCC1=C(C(=O)O)N2C(=O)C(NC(=O)[C@H](NC(=O)c3ccc(-c4ccc(NC(=O)[C@@H]5CCC(=O)N5)cc4)[nH]c3=O)c3ccccc3)C2SC1 (stereo partly drawn) [Example 7, N-[6-[4-(L-Pyroglutamylamino)phenyl]-1,2-dihydro-2-oxonicotinyl]-7-[D-2-amino-2-phenylacetamido]-3-[[(1-methyl-1H-tetrazol-5-yl)thio]methyl]-3-cephem-4-carboxylic acid] | 6.3 (≈ 8.03 µM) | 6.3 (≈ 8.03 µM) | 6.3 (≈ 8.03 µM) | 3.1 (≈ 3.95 µM) | 0.8 (≈ 1.02 µM) | 12.5 (≈ 15.9 µM) | 3.1 (≈ 3.95 µM) | 12.5 (≈ 15.9 µM) | 1.6 (≈ 2.04 µM) | 12.5 (≈ 15.9 µM) | 0.4 (≈ 0.51 µM) | 3.1 (≈ 3.95 µM) |
| CC(=O)N[C@H](C)C(=O)Nc1ccc(-c2ccc(C(=O)N[C@@H](C(=O)NC3C(=O)N4C(C(=O)O)=C(COC(C)=O)CSC34)c3ccc(O)cc3)c(=O)[nH]2)cc1 (stereo partly drawn) [Example 8, N-[6-[4-(N-Acetyl-D-alanylamino)phenyl]-1,2-dihydro-2-oxonicotinyl]-7-[D-2-amino-2-(4-hydroxyphenyl)acetamido]-3-acetoxymethyl-3-cephem-4-carboxylic acid] | 1.6 (≈ 2.14 µM) | 6.3 (≈ 8.44 µM) | 3.1 (≈ 4.15 µM) | 12.5 (≈ 16.7 µM) | 3.1 (≈ 4.15 µM) | 12.5 (≈ 16.7 µM) | 12.5 (≈ 16.7 µM) | 50 (≈ 67 µM) | 6.3 (≈ 8.44 µM) | 12.5 (≈ 16.7 µM) | 1.6 (≈ 2.14 µM) | 6.3 (≈ 8.44 µM) |
| CC(=O)N[C@@H](CCC(N)=O)C(=O)Nc1ccc(-c2ccc(C(=O)N[C@@H](C(=O)NC3C(=O)N4C(C(=O)O)=C(CSc5nnnn5C)CSC34)c3ccccc3)c(=O)[nH]2)cc1 (stereo partly drawn) [Example 9, N-[6-[4-(N-Acetyl-L-glutaminylamino)phenyl]-1,2-dihydro-2-oxonicotinyl]-7-(D-2-amino-2-phenylacetamido]-3-[[(1-methyl-1H-tetrazol-5-yl)thio]methyl]-3-cephem-4-carboxylic acid] | 3.1 (≈ 3.67 µM) | 6.3 (≈ 7.47 µM) | 6.3 (≈ 7.47 µM) | 3.1 (≈ 3.67 µM) | 0.4 (≈ 0.474 µM) | 6.3 (≈ 7.47 µM) | 1.6 (≈ 1.9 µM) | 12.5 (≈ 14.8 µM) | 0.8 (≈ 0.948 µM) | 25 (≈ 29.6 µM) | 0.4 (≈ 0.474 µM) | 3.1 (≈ 3.67 µM) |
| CC(=O)NC(C)(C)C(=O)Nc1ccc(-c2ccc(C(=O)N[C@@H](C(=O)NC3C(=O)N4C(C(=O)O)=C(COC(C)=O)CSC34)c3ccccc3)c(=O)[nH]2)cc1 (stereo partly drawn) [Example 11, N-[6-[4-(N-Acetyl-alpha-aminoisobutyrylamino)phenyl]-1,2-dihydro-2-oxonicotinyl]-7-[D-2-amino-2-phenylacetamido]-3-acetoxymethyl-3-cephem-4-carboxylicacid] | 3.1 (≈ 4.16 µM) | 6.3 (≈ 8.46 µM) | 6.3 (≈ 8.46 µM) | 12.5 (≈ 16.8 µM) | 3.1 (≈ 4.16 µM) | 12.5 (≈ 16.8 µM) | 12.5 (≈ 16.8 µM) | 50 (≈ 67.1 µM) | 12.5 (≈ 16.8 µM) | 25 (≈ 33.6 µM) | 0.4 (≈ 0.537 µM) | 3.1 (≈ 4.16 µM) |
| CC(=O)OCC1=C(C(=O)O)N2C(=O)C(NC(=O)[C@H](NC(=O)c3ccc(-c4ccc(NC(=O)[C@@H]5CCCN5C(C)=O)cc4)[nH]c3=O)c3ccccc3)C2SC1 (stereo partly drawn) [Example 12, N-[6-[4-(N-Acetyl-L-prolylamino)phenyl]-1,2-dihydro-2-oxonicotinyl]-7-[D-2-amino-2-phenylacetamido]-3-acetoxymethyl-3-cephem-4-carboxylic acid] | 6.3 (≈ 8.32 µM) | 12.5 (≈ 16.5 µM) | 6.3 (≈ 8.32 µM) | 6.3 (≈ 8.32 µM) | 3.1 (≈ 4.1 µM) | 25 (≈ 33 µM) | 12.5 (≈ 16.5 µM) | 50 (≈ 66.1 µM) | 6.3 (≈ 8.32 µM) | 12.5 (≈ 16.5 µM) | 0.8 (≈ 1.06 µM) | 3.1 (≈ 4.1 µM) |
| CC(=O)N[C@H](CC(N)=O)C(=O)Nc1ccc(-c2ccc(C(=O)N[C@@H](C(=O)NC3C(=O)N4C(C(=O)O)=C(COC(C)=O)CSC34)c3ccccc3)c(=O)[nH]2)cc1 (stereo partly drawn) [Example 13, N-[6-[4-(N-Acetyl-D-aspariginylamino)phenyl]-1,2-dihydro-2-oxonicotinyl]-7-[D-2-amino-2-phenylacetamido]-3-acetoxymethyl-3-cephem-4-carboxylic acid] | 12.5 (≈ 16.2 µM) | 12.5 (≈ 16.2 µM) | 6.3 (≈ 8.14 µM) | 12.5 (≈ 16.2 µM) | 3.1 (≈ 4.01 µM) | 25 (≈ 32.3 µM) | 12.5 (≈ 16.2 µM) | > 50 | 6.3 (≈ 8.14 µM) | 25 (≈ 32.3 µM) | 0.8 (≈ 1.03 µM) | 6.3 (≈ 8.14 µM) |
| CC(=O)N[C@@H](CCC(N)=O)C(=O)Nc1ccc(-c2ccc(C(=O)N[C@@H](C(=O)NC3C(=O)N4C(C(=O)O)=C(COC(C)=O)CSC34)c3ccccc3)c(=O)[nH]2)cc1 (stereo partly drawn) [Example 14, N-[6-[4-(N-Acetyl-L-glutaminylamino)phenyl]-1,2-dihydro-2-oxonicotinyl]-7-[D-2-amino-2-phenylacetamido]-3-acetoxymethyl-3-cephem-4-carboxylic acid] | 3.1 (≈ 3.93 µM) | 6.3 (≈ 8 µM) | 6.3 (≈ 8 µM) | 6.3 (≈ 8 µM) | 1.6 (≈ 2.03 µM) | 25 (≈ 31.7 µM) | 12.5 (≈ 15.9 µM) | 50 (≈ 63.5 µM) | 3.1 (≈ 3.93 µM) | 12.5 (≈ 15.9 µM) | 0.8 (≈ 1.02 µM) | 1.6 (≈ 2.03 µM) |
| CC(=O)N[C@@H](C)C(=O)Nc1ccc(-c2ccc(C(=O)N[C@@H](C(=O)NC3C(=O)N4C(C(=O)O)=C(CSc5nnc(C)s5)CSC34)c3ccccc3)c(=O)[nH]2)cc1 (stereo partly drawn) [Example 15, N-[6-[4-(N-Acetyl-L-alanylamino)phenyl]-1,2-dihydro-2-oxonicotinyl]-7-[D-2-amino-2-phenylacetamido]-3-[([5-methyl-1,3,4-thiadiazolyl-2-yl]thio)methyl]-3-cephem-4-carboxylic acid] | 12.5 (≈ 15.6 µM) | 12.5 (≈ 15.6 µM) | 12.5 (≈ 15.6 µM) | 6.3 (≈ 7.85 µM) | 1.6 (≈ 1.99 µM) | 12.5 (≈ 15.6 µM) | 12.5 (≈ 15.6 µM) | 25 (≈ 31.1 µM) | 3.1 (≈ 3.86 µM) | 12.5 (≈ 15.6 µM) | 0.4 (≈ 0.498 µM) | 6.3 (≈ 7.85 µM) |
| O=C(O)Cn1nnnc1SCC1=C(C(=O)O)N2C(=O)C(NC(=O)[C@H](NC(=O)c3ccc(-c4ccc(NC(=O)[C@@H]5CCC(=O)N5)cc4)[nH]c3=O)c3ccccc3)C2SC1 (stereo partly drawn) [Example 16, N-[6-[4-(L-Pyroglutamylamino)phenyl]-1,2-dihydro-2-oxonicotinyl]-7-[D-2-amino-2-phenylacetamido]-3-[[(1-carboxymethyl-1H-tetrazol-5-yl)thio]methyl]-3-cephem-4-carboxylic acid] | 3.1 (≈ 3.74 µM) | 6.3 (≈ 7.6 µM) | 6.3 (≈ 7.6 µM) | 3.1 (≈ 3.74 µM) | 0.4 (≈ 0.483 µM) | 0.4 (≈ 0.483 µM) | 3.1 (≈ 3.74 µM) | 6.3 (≈ 7.6 µM) | 0.8 (≈ 0.965 µM) | 50 (≈ 60.3 µM) | 3.1 (≈ 3.74 µM) | 12.5 (≈ 15.1 µM) |
| CC(=O)N[C@H](C)C(=O)Nc1ccc(-c2ccc(C(=O)N[C@@H](C(=O)NC3C(=O)N4C(C(=O)O)=C(CSc5nnnn5C)CSC34)c3ccccc3)c(=O)[nH]2)cc1 (stereo partly drawn) [Example 19, N-[6-[4-(N-Acetyl-D-alanylamino)phenyl]-1,2-dihydro-2-oxonicotinyl]-7-[D-2-amino-2-phenylacetamido]-3-[[(1-methyl-1H-tetrazol-5-yl)thio]methyl]-3-cephem-4-carboxylic acid] | 6.3 (≈ 8.01 µM) | 12.5 (≈ 15.9 µM) | 6.3 (≈ 8.01 µM) | 6.3 (≈ 8.01 µM) | 0.8 (≈ 1.02 µM) | 12.5 (≈ 15.9 µM) | 12.5 (≈ 15.9 µM) | 25 (≈ 31.8 µM) | 3.1 (≈ 3.94 µM) | 25 (≈ 31.8 µM) | 0.8 (≈ 1.02 µM) | 6.3 (≈ 8.01 µM) |
